Values joined by “and” are separate entries in the source; they are usually repeats but may differ in a detail not shown here. Identical values can stand only once.

What is called melting point is the temperature, or range, at which the solid turns liquid.

As to `COc1cccc(B(O)O)c1` [3-methoxybenzeneboronic acid], the melting point worked out at 160 °C.

`NC(=O)CN1Cc2ccccc2OC1=O` [caroxazone] registered a melting point of 203 °C.

Compound `COc1cc(Cc2cnc(N)nc2N)cc(OC)c1OC` [trimethoprim] displayed a melting point of 201 °C.

In the case of `Cl/C=C\Cl` [cis-1,2-dichloroethylene], the melting point is -80 °C.

Compound `c1ccc(-c2nnc(-c3ccccc3)o2)cc1` [2,5-diphenyl-1,3,4-oxadiazole] showed a melting point of 140 °C.

In turn, `N=C(NCCCCCCNC(=N)NC(=N)Nc1ccc(Cl)cc1)NC(=N)Nc1ccc(Cl)cc1` had a melting point of 134 °C.

The compound `O=[N+]([O-])c1cccc2cccc(/C=N/c3ccccc3)c12` [N-[(1E)-(8-nitronaphthalen-1-yl)methylidene]aniline] registered a melting point of 115 °C.

Consider `C1=CC2=CC=C3C=CC=CC4=C3CC2=C(C=C1)C=C4` [6H-5,7-ethenocyclohepta[b]heptalene], for which the melting point stood at 130 °C.

`O=[N+]([O-])c1ccc(OCCN2CCOCC2)cc1` [4-[2-(4-nitrophenoxy)ethyl]morpholine] had a melting point of 80 °C.

Take `Cc1ccc(Cl)cc1` [4-chlorotoluene]: the melting point turned out to be 8 °C.

Regarding `CCc1ncc[nH]1` [2-ethylimidazole], the melting point was 82 °C.

Turning to `Cc1ccccc1OP(=O)(Oc1ccccc1C)Oc1ccccc1C` [Tris(2-methylphenyl) phosphate], the melting point is -33 °C.

As to `CO[C@@H]1O[C@H](CO)[C@H](O)[C@H](O)[C@H]1O` [methyl beta-d-galactopyranoside], the melting point was 177 °C.

`CCCCNC(=O)C(c1cc(OC)cc(OC)c1)N(Cc1ccccc1)C(=O)C#Cc1ccccc1` (stereo unspecified) [Ugi product 173G (UC)]: the melting point amounted to 138 °C.

As for `Cc1cccc2c(O)cc(C(F)(F)F)nc12` [4-hydroxy-8-methyl-2-(trifluoromethyl)quinoline], the melting point turned out to be 128 °C.

As for `Oc1cccc(O)c1` [Resorcinol], the melting point was determined as 111 °C.

In turn, `O=Cc1cccc(C=O)c1` [isophthalaldehyde] registered a melting point of 89 °C.

`CC(C)(C)OC(=O)N1CCC[C@H]1CO` [N-boc-L-prolinol] yielded a melting point of 61 °C.

As to `NC(=O)N1c2ccccc2C=Cc2ccccc21` [Carbamazepine], the melting point was determined as 190 °C.

`O=C(O)Cc1ccccc1Cl` [2-chlorophenylacetic acid]: the melting point came out at 96 °C.

Compound `CCCCNC(=O)NS(=O)(=O)c1ccc(C)cc1` [tolbutamide] yielded a melting point of 129 °C.

For the compound `CC12CCC(CC1=O)C2(C)C` (stereo unspecified) [1,7,7-Trimethylbicyclo[2.2.1]heptan-2-one], the melting point stood at 177 °C.

In turn, `O=Cc1ccc(F)c(Cl)c1` [3-chloro-4-fluorobenzaldehyde] registered a melting point of 27 °C.

For the compound `CCCC(c1ccccc1)c1ccccc1` [1,1-diphenylbutane], the melting point is -25 °C.

Compound `NNc1cc(Cl)ccc1Cl` [2,5-dichlorophenylhydrazine] registered a melting point of 104 °C.

For `c1ccc2c(c1)Cc1ccccc1O2` [Xanthene], the melting point was found to be 101 °C.

Take `CC(Br)CBr` (stereo unspecified) [1,2-dibromopropane]: the melting point is -55 °C.

In turn, `Cc1ccccc1CNC(=O)c1ccccc1` [N-(2-methylbenzyl)benzamide] had a melting point of 118 °C.

`CCCCCCCCCCCCCCC(=O)O` [pentadecanoic acid] gave a melting point of 53 °C.

The compound `COc1ccc(OC)c(S(N)(=O)=O)c1` [2,5-dimethoxybenzenesulfonamide] displayed a melting point of 147 °C.

For the compound `Cc1ccc(O)cc1` [p-Cresol], the melting point is 34 °C.

Consider `COC(=O)CCCCCCCCC(=O)OC` [dimethyl sebacate], for which the melting point was 27 °C.

`CC(C)(C)N` [2-amino-2-methylpropane] came in with a melting point of -68 °C.

With `COc1ccc(C(=O)CC#N)cc1` [4-methoxybenzoylacetonitrile], the melting point was 128 °C.

In turn, `Nc1ccc(-c2ccccc2)cc1` [4-aminobiphenyl] returned a melting point of 54 °C.

As to `OB(O)c1ccc(N(Cc2ccccc2)Cc2ccccc2)cc1` [4-(dibenzylamino)benzeneboronic acid], the melting point amounted to 186 °C.

`O=C(O)c1ccc(I)cc1` [4-iodobenzoic acid] gave a melting point of 270 °C.

In turn, `CCCCCCCCCCCCCCCC` [Hexadecane] returned a melting point of 18 °C.

The compound `OCc1ccc(F)c(B(O)O)c1` [2-fluoro-5-(hydroxymethyl)benzeneboronic acid] showed a melting point of 71 °C.

Take `O=C(O)c1ccc2c(c1)OCCCO2` [3,4-dihydro-2h-1,5-benzodioxepin-7-carboxylic acid]: the melting point was 148 °C.

Regarding `c1cc2ccc3cccc4ccc(c1)c2c34` [Pyrene], the melting point was determined as 151 °C.

The compound `CB(O)O` [methylboronic acid] registered a melting point of 92 °C.

Consider `Cc1c(Br)cccc1[N+](=O)[O-]` [2-bromo-6-nitrotoluene], for which the melting point was found to be 40 °C.

With `COc1cccc(P(c2cccc(OC)c2)c2cccc(OC)c2)c1` [tris(3-methoxyphenyl)phosphine], the melting point stood at 114 °C.

Compound `CC(C)c1cccc(C(C)C)c1N` [2,6-diisopropylaniline] yielded a melting point of -54 °C.

In turn, `CCOc1ccc(OCC)cc1` [p-diethoxybenzene] gave a melting point of 72 °C.

On to `CC(=O)Oc1cccc(-c2ccccc2)c1` [3-acetoxybiphenyl], for which the melting point stood at 34 °C.

The compound `OB(O)c1c(F)cc(F)cc1F` [2,4,6-trifluorobenzeneboronic acid] had a melting point of 235 °C.

As for `COC1(OC)CCC2(C)C(CCC3C4CCCC4(C)CCC32)C1` (stereo unspecified) [3,3-dimethoxyandrostane], the melting point turned out to be 80 °C.

In the case of `CN(C)C(=O)Nc1ccc(Cl)c(Cl)c1` [diuron], the melting point is 158 °C (2×) and 159 °C.

Turning to `CCCCCCCCCCCCCCCCCC(=O)O[C@H]1CC[C@@]2(C)C(=CC[C@H]3[C@@H]4CC[C@H]([C@H](C)CCCC(C)C)[C@@]4(C)CC[C@@H]32)C1` [cholesteryl stearate], the melting point was 80 °C.

Consider `O=C(NC1CCCCC1)c1ccccc1` [N-cyclohexylbenzamide], for which the melting point worked out at 162 °C.

Compound `O=Cc1c(F)c(F)c(F)c(F)c1F` [pentafluorobenzaldehyde] gave a melting point of 26 °C.

In turn, `N=C(NCCCCCCNC(=N)NC(=N)Nc1ccc(Cl)cc1)NC(=N)Nc1ccc(Cl)cc1` [Chlorhexidine] displayed a melting point of 134 °C.

As for `COc1ccc(N=C=S)c([N+](=O)[O-])c1` [4-methoxy-2-nitrophenyl isothiocyanate], the melting point was 92 °C.

Compound `CNC(=O)O/N=C(\C)SC` [Methyl (1E)-N-[(methylcarbamoyl)oxy]ethanimidothioate] yielded a melting point of 79 °C.

Consider `COc1cc(/C=C/C(=O)c2ccccc2O)ccc1O` [2',4-dihydroxy-3-methoxychalcone], for which the melting point came to 128 °C.

With `Cc1cccc(Cl)c1` [3-chlorotoluene], the melting point was -48 °C.

Regarding `Oc1cccc(Cl)c1` [3-Chlorophenol], the melting point is 33 °C and 32.6 °C.

In turn, `Cc1cc(NS(=O)(=O)c2ccc(N)cc2)nc(C)n1` [Sulfisomidine] registered a melting point of 243 °C.

`Oc1ccc(-c2nccs2)cc1` [4-(2-thiazolyl)phenol] returned a melting point of 164 °C.

The values are drawn from the Bradley open melting point set (2014).
